Paper PMC8894159, “Paltusotine, a novel oral once-daily nonpeptide SST2 receptor agonist, suppresses GH and IGF-1 in healthy volunteers” (Pituitary, 2022)

Columns and labels:
[1] = Safety and tolerability, single-dose cohorts; format: in vivo, human
Experimental: Adverse events and concomitant medications were recorded. Laboratory samples for clinical chemistry, hematology, coagulation tests, and urinalysis were collected under fasted conditions. Participants who discontinued prematurely attended an early termination visit.
For the safety analysis, adverse events were coded using the Medical Dictionary for Regulatory Activities (MedDRA® Version 20.0). Adverse events were grouped by preferred terms. Treatment-emergent adverse events (TEAEs) were summarized with descriptive statistics.

[2] = parameters: method as in doi:10.1530/endoabs.70.AEP627; conditions: separate study, cited from earlier work
[3] = tested on: stimulated-GH and IGF-1 secretion; parameters: method as in ref 13 = [13]; 13. Betz SF Markison S Kusnetzow AK Athanacio JD Rico-Bautista E Madan A Suppression of growth hormone and insulin-like growth factor 1 in rats after oral administration of CRN00808, a small molecule; conditions: cited from earlier work
serum IGF-1 = assay: Serum IGF-1 suppression in healthy volunteers; format: in vivo, human
Experimental: For assessment of serum IGF-1, in the single-dose cohorts, serum IGF-1 was collected on Day - 1 and Day 1 (pre-dose to 18 h post-dose), and Day 2 and 7 (at approximately the same time GHRH was administered on Day 1). In the M1 cohort, IGF-1 samples were obtained pre-dose, 6 and 12 h post-dose on Days - 1, 1 and 7; pre-dose and 12 h post-dose on Days 2–6; and at approximately the same time as dosing on Days 8, 10, and 14. For M2 and subsequent cohorts, IGF-1 samples were obtained pre-dose, 6 and 12 h post-dose on Days - 1, 1 and 10; pre-dose and 12 h post-dose on Days 2–9; and at approximately the same time as dosing on Days 11, 14, and 21.
Serum was isolated, stored, and analyzed for IGF-1 and GH according to the instructions from the manufacturer (IGF-1 and human GH diagnostic assay, Siemens Immulite® 1000 systems).
The study endpoints were effects of paltusotine on GHRH-stimulated GH and IGF-1 (pharmacodynamics), pharmacokinetics (including formulation and food effects), safety, and tolerability. For the analysis of effects paltusotine on GHRH-stimulated GH and IGF-1, the pharmacodynamic population included all randomized participants in the 1.25 mg, 2.5 mg, 5 mg, 10 mg, and 20 mg (S1, S2, S3, S4A, and S5) single-dose cohorts who received any amount of study drug and had at least one post-baseline pharmacodynamic assessment. The percent change in serum GH area under the curve (AUC) from 0 to 2 h (AUC0-2) from baseline was compared using ANOVA between each dosing cohort and all participants who received placebo. The single-dose pharmacodynamic population included 39 participants from the S1, S2, S3, S4, and S5 cohorts (paltusotine n = 29; placebo n = 10). […] For multiple-dose cohorts, only participants who received all doses were included. A change in IGF-1 levels 12 h post last dose from baseline (average of 3–4 measurements) were compared by ANOVA between each dosing cohort and all participants who received placebo. The multiple-dose pharmacodynamic population included 31 participants from the M1, M2, M3, and M4 cohorts (paltusotine n = 21; placebo n = 10).

[4] = parameters: method as in ref 14 = [14]; 14. Madan A, Juo R, Ferrara-Cook C, Struthers RS, van Marle S, Krasner A (2020) Absorption, metabolism, excretion and absolute oral bioavailability [ 14 C]-CRN00808, an orally bioavailable, nonpeptide; conditions: cited from earlier work
[5] = single-dosing, safety population N = 41

## Cl.N#Cc1cccc(-c2ccc3ncc(-c4cc(F)cc(F)c4)c(N4CCC(N)CC4)c3c2)c1O [paltusotine, 3-[4-(4-Aminopiperidin-1-yl)-3-(3,5-difluorophenyl)quinolin-6-yl]-2-hydroxybenzonitrile hydrochloride]
[1]; all cohorts
  life-threatening events or deaths: No life-threatening events or deaths occurred
[1]; single-dose administration
  tolerability: well tolerated
[1]; single-dose cohorts
  share of TEAEs occurring at a dose level of 10 mg or higher: 64%
[1]; [5]
  Abdominal distension (TEAE): 2 (4.9%) n (%)
  Abdominal pain (TEAE): 2 (4.9%) n (%)
  Abdominal pain upper (TEAE): 2 (4.9%) n (%)
  Back pain (TEAE): 2 (4.9%) n (%)
  Fatigue (TEAE): 2 (4.9%) n (%)
  Headache (TEAE): 5 n (%)
  Hypoesthesia (TEAE): 2 (4.9%) n (%)
  Nausea (TEAE): 2 (4.9%) n (%)
  Participants with at least 1 TEAE: 28 (68.3%) n (%)
  Tension headache (TEAE): 2 (4.9%) n (%)
  Ventricular tachycardia (non-sustained) (TEAE): 2 (4.9%) n (%)
[1]; single-dosing, safety population N = 41, listed as Paltusotine
  Headache (TEAE): 5 (12.2%) n (%)
[2]; oral solution
  mean absolute oral bioavailability: 70%
[2]; sampling up to 144 h
  t1/2 after intravenous administration: 29 h
[3]
  stimulated-GH and IGF-1 secretion in rats: suppresses stimulated-GH and IGF-1 secretion
Serum IGF-1; 5 mg once daily, Day 7, relative to baseline
  IGF-1 suppression: 19%
Serum IGF-1; 10 mg cohort, final dose on Day 10
  additional time IGF-1 remained suppressed after the final dose: 4 days
Serum IGF-1; 10 mg once daily, Day 10, relative to baseline
  IGF-1 suppression: 37%
Serum IGF-1; 20 mg once daily, Day 10, relative to baseline
  IGF-1 suppression: 37%
Serum IGF-1; 30 mg once daily, Day 10, relative to baseline
  IGF-1 suppression: 30%
Serum IGF-1; multiple-dose cohorts
  maximal degree of IGF-1 suppression: up to 37%
Serum IGF-1; once-daily dosing (10 mg cohort illustrated)
  time to near-maximum IGF-1 suppression: approximately 7 days
Serum IGF-1; single 1.25 to 20 mg dose, compared to Day -1 or placebo
  serum IGF-1 change after a single dose: little to no change
[4]
  oral bioavailability in animals: high oral bioavailability
